Measured values: ChEMBL document CHEMBL1201862, “PubChem BioAssay data set” (2004)
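All cell lines were grown in 96-well plates and treated with compound for 48 hours. Abbreviation: GI50, concentration required for 50% inhibition of growth.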 Active and inactive are the calls of the source. Cut-off read from the data, not from the text of the source: active = GI50 up to about 1.1 µM and inactive = higher.

Tests used:
Assay in all cases: inhibition of tumour cell growth, NCI panel, 48 h
[1] = test system: BT-549
[2] = test system: CAKI-1
[3] = test system: EKVX
[4] = test system: HCT-15
[5] = test system: HT-29
[6] = test system: Hs-578T
[7] = test system: MDA-MB-435
[8] = test system: MDA-N
[9] = test system: NCI-H460
[10] = test system: NCI-H522
[11] = test system: OVCAR-5
[12] = test system: PC-3
[13] = test system: RPMI-8226
[14] = test system: SF-268
[15] = test system: SF-295
[16] = test system: SK-MEL-2
[17] = test system: SK-MEL-5
[18] = test system: TK-10
[19] = test system: HOP-62

Row | Structure (SMILES) | GI50 [1] | GI50 [2] | GI50 [3] | GI50 [4] [µM] | GI50 [5] | GI50 [6] | GI50 [7] | GI50 [8] | GI50 [9] | GI50 [10] | GI50 [11] | GI50 [12] | GI50 [13] | GI50 [14] | GI50 [15] | GI50 [16] | GI50 [17] | GI50 [18] | GI50 [19]
1 | CCC/C=C/c1cc2c(cc1O)CC[C@@H]1[C@@H]2CC[C@]2(C)[C@@H](O)CC[C@@H]12 | 18.8 µM (inactive) | 21.2 µM (inactive) | 19.2 µM (inactive) | 18.6 | 18.4 µM (inactive) | 21.7 µM (inactive) | 15.7 µM (inactive) | 15.1 µM (inactive) | 17.4 µM (inactive) | 17.3 µM (inactive) | 18.4 µM (inactive) | 15.8 µM (inactive) | 14 µM (inactive) | 18.4 µM (inactive) | 17.6 µM (inactive) | 16.6 µM (inactive) | 16.4 µM (inactive) | 20.7 µM (inactive) | 
2 | O=C(O)/C=C/C(=O)N1Cc2cc3ccccc3nc2C1 | > 100 µM (inactive) | > 100 µM (inactive) | > 100 µM (inactive) | > 100 | > 100 µM (inactive) | > 100 µM (inactive) | > 100 µM (inactive) | > 100 µM (inactive) | > 100 µM (inactive) | > 100 µM (inactive) | > 100 µM (inactive) | > 100 µM (inactive) | > 100 µM (inactive) | > 100 µM (inactive) | > 100 µM (inactive) | > 100 µM (inactive) | > 100 µM (inactive) | > 100 µM (inactive) | > 100 µM (inactive)
3 | S=C(N1CCN(c2ccccc2)CC1)N1CCN(c2ccccc2)CC1 | > 100 µM (inactive) | > 100 µM (inactive) | > 100 µM (inactive) | > 100 | 55.2 µM (inactive) | > 100 µM (inactive) | > 100 µM (inactive) | 89.5 µM (inactive) | > 100 µM (inactive) | > 100 µM (inactive) | > 100 µM (inactive) | > 100 µM (inactive) | > 100 µM (inactive) | > 100 µM (inactive) | 52.1 µM (inactive) | > 100 µM (inactive) | 95.1 µM (inactive) | > 100 µM (inactive) | > 100 µM (inactive)
4 | O=C(O)CNCP(=O)(O)O [GLYPHOSATE] | > 100 µM (inactive) | > 100 µM (inactive) | > 100 µM (inactive) | > 100 | > 100 µM (inactive) | > 100 µM (inactive) | > 100 µM (inactive) | > 100 µM (inactive) | > 100 µM (inactive) | > 100 µM (inactive) | > 100 µM (inactive) | > 100 µM (inactive) | > 100 µM (inactive) | > 100 µM (inactive) | > 100 µM (inactive) | > 100 µM (inactive) | > 100 µM (inactive) | > 100 µM (inactive) | > 100 µM (inactive)
5 | COC1CC(C)(N)C(O)C(C)O1 (stereo not given) | > 100 µM (inactive) | > 100 µM (inactive) | > 100 µM (inactive) | > 100 | > 100 µM (inactive) | > 100 µM (inactive) | > 100 µM (inactive) | > 100 µM (inactive) | > 100 µM (inactive) | > 100 µM (inactive) |  | > 100 µM (inactive) | > 100 µM (inactive) | > 100 µM (inactive) | > 100 µM (inactive) | > 100 µM (inactive) | > 100 µM (inactive) | > 100 µM (inactive) | > 100 µM (inactive)
6 | Cc1ccc(NC(=O)CC(=O)n2nc(C)c(/N=N/c3cccc(C)c3)c2C)cc1 | > 100 µM (inactive) | > 100 µM (inactive) | 31 µM (inactive) | > 100 | > 100 µM (inactive) | 38.5 µM (inactive) | > 100 µM (inactive) | > 100 µM (inactive) | > 100 µM (inactive) | > 100 µM (inactive) | > 100 µM (inactive) | > 100 µM (inactive) | > 100 µM (inactive) | 69 µM (inactive) | > 100 µM (inactive) | > 100 µM (inactive) | > 100 µM (inactive) | > 100 µM (inactive) | 65.8 µM (inactive)
7 | Cc1c2c(OCC(O)CN3CCN(c4ccccc4)CC3)nn(C)c(=O)c2c(C)n1-c1ccccc1 (stereo not given) | 21.9 µM (inactive) | 31.6 µM (inactive) | 34.8 µM (inactive) | 20.3 | 22.7 µM (inactive) | 24.4 µM (inactive) | 29.4 µM (inactive) | 19.1 µM (inactive) | 25 µM (inactive) | 20.6 µM (inactive) | 23.4 µM (inactive) | 22 µM (inactive) | 21.6 µM (inactive) | 26.2 µM (inactive) | 21.5 µM (inactive) | 17.9 µM (inactive) | 16.6 µM (inactive) | 47.5 µM (inactive) | 39.6 µM (inactive)
8 | NCCC1CN(C(=O)OCc2ccccc2)c2ccccc21 (stereo not given) | 16.8 µM (inactive) | 21.4 µM (inactive) | 20.2 µM (inactive) | 1.78 | 12.5 µM (inactive) | 26.2 µM (inactive) | 14.8 µM (inactive) | 13.5 µM (inactive) | 17.7 µM (inactive) | 14.5 µM (inactive) | 17.1 µM (inactive) | 3.86 µM (inactive) | 12.8 µM (inactive) | 17.1 µM (inactive) | 18.3 µM (inactive) | 18 µM (inactive) | 11.2 µM (inactive) | 22.6 µM (inactive) | 23.1 µM (inactive)
9 | Cc1ccc([N+](=O)[O-])cc1S(=O)(=O)Nc1ccc(C2=NOC(c3ccccc3)C2)cc1 (stereo not given) | 12.4 µM (inactive) | 7.1 µM (inactive) | 17.7 µM (inactive) | 4.11 | 6.78 µM (inactive) | 19.8 µM (inactive) | 1.5 µM (inactive) | 1.99 µM (inactive) | 5.52 µM (inactive) | 3.27 µM (inactive) | 25.4 µM (inactive) | 7.19 µM (inactive) | 4.7 µM (inactive) | 12.4 µM (inactive) | 3.17 µM (inactive) | 3.65 µM (inactive) | 6.47 µM (inactive) |  | 5.3 µM (inactive)
10 | ClCC[N+]12CC[N+](CCCl)(CC1)C2 | > 100 µM (inactive) | > 75.5 µM (inactive) | > 100 µM (inactive) | > 100 | > 100 µM (inactive) | > 100 µM (inactive) | > 100 µM (inactive) | > 100 µM (inactive) | > 87.7 µM (inactive) | > 100 µM (inactive) | > 100 µM (inactive) | > 100 µM (inactive) | > 100 µM (inactive) | > 100 µM (inactive) | > 100 µM (inactive) | > 100 µM (inactive) | > 100 µM (inactive) | > 100 µM (inactive) | > 100 µM (inactive)
11 | CC(C)(C)OC(=O)CN1CCNCCN(CC(=O)OC(C)(C)C)CCNCC1 | > 100 µM (inactive) | > 100 µM (inactive) | > 100 µM (inactive) | > 100 | 33.3 µM (inactive) | > 100 µM (inactive) | 98.9 µM (inactive) | 65.6 µM (inactive) | 63.2 µM (inactive) | > 100 µM (inactive) | > 100 µM (inactive) | > 100 µM (inactive) | 70 µM (inactive) |  | > 100 µM (inactive) | > 100 µM (inactive) | 50.6 µM (inactive) | > 100 µM (inactive) | > 100 µM (inactive)
12 | NS(=O)(=O)c1cc(Br)c(/N=N\c2ccc(O)c3ncccc23)c(Br)c1 | 16.4 µM (inactive) | 37.9 µM (inactive) | 32.3 µM (inactive) | 4.27 | > 100 µM (inactive) | 21.8 µM (inactive) | 29.2 µM (inactive) | 14.6 µM (inactive) | 25.3 µM (inactive) | 16.5 µM (inactive) | 71.6 µM (inactive) | 29.8 µM (inactive) | 7.26 µM (inactive) | 15.9 µM (inactive) | 42.6 µM (inactive) | 28 µM (inactive) | 30.7 µM (inactive) | 22.3 µM (inactive) | 25.5 µM (inactive)
13 | ON[C@H]1C[C@@H](n2cnc3c(NC4CC4)ncnc32)[C@H](O)[C@@H]1O | > 100 µM (inactive) | > 100 µM (inactive) | > 100 µM (inactive) | > 100 | > 100 µM (inactive) | > 100 µM (inactive) | > 100 µM (inactive) | > 100 µM (inactive) | > 100 µM (inactive) | > 100 µM (inactive) | > 100 µM (inactive) | > 100 µM (inactive) | > 100 µM (inactive) | > 100 µM (inactive) | > 100 µM (inactive) | > 100 µM (inactive) | > 100 µM (inactive) | > 100 µM (inactive) | > 100 µM (inactive)
14 | CCC[N+](C)(C)CCCNC(=O)c1c(O)c2ccccc2[nH]c1=O | 89.1 µM (inactive) | > 100 µM (inactive) | > 100 µM (inactive) | > 100 | > 100 µM (inactive) | > 100 µM (inactive) | > 100 µM (inactive) | > 100 µM (inactive) | > 100 µM (inactive) | > 100 µM (inactive) | > 100 µM (inactive) | > 100 µM (inactive) | > 100 µM (inactive) | > 100 µM (inactive) | > 100 µM (inactive) | > 100 µM (inactive) | 15.9 µM (inactive) | > 100 µM (inactive) | > 100 µM (inactive)
15 | O=C1OC[C@@H]2[C@@H](O)CCCCCN12 | > 100 µM (inactive) | > 100 µM (inactive) | > 100 µM (inactive) | > 100 | > 100 µM (inactive) | > 100 µM (inactive) | > 100 µM (inactive) | > 100 µM (inactive) | > 100 µM (inactive) | > 100 µM (inactive) | > 100 µM (inactive) | > 100 µM (inactive) | > 100 µM (inactive) |  | > 100 µM (inactive) | > 100 µM (inactive) | > 100 µM (inactive) | > 100 µM (inactive) | > 100 µM (inactive)
